Assays:
Assay type in all cases: in vivo
[1] = system: blackgrass (Alopecurus myosuroides); assay: Test C postemergence, plant response rating; conditions: Alopecurus myosuroides, post-emergence
Outline: (§1)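 Greenhouse plants rated visually against untreated controls 13–15 d after treatment, scale 0 = no effect to 100 = complete control. Postemergence sprays went onto potted plants 2–18 cm tall (1–4 leaves); preemergence sprays onto soil freshly sown in loam–sand or silt loam, chemicals formulated in non-phytotoxic solvent with surfactant.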

[2] = system: barnyardgrass (Echinochloa crus-galli); assay: Test C postemergence, plant response rating; conditions: Echinochloa crus-galli, post-emergence
Outline: as §1

[3] = system: velvetleaf (Abutilon theophrasti); assay: Test C postemergence, plant response rating; conditions: Abutilon theophrasti, post-emergence
Outline: as §1

[4] = system: morningglory (Ipomoea coccinea); assay: Test C postemergence, plant response rating; conditions: Ipomoea, post-emergence
Outline: as §1

[5] = system: oilseed rape (Brassica napus); assay: Test C postemergence, plant response rating; conditions: Brassica napus, post-emergence
Outline: as §1

[6] = system: foxtail, giant (giant foxtail, Setaria faberii); assay: Test C postemergence, plant response rating; conditions: Setaria faberi, post-emergence
Outline: as §1

[7] = system: wheat (winter wheat, Triticum aestivum); assay: Test C postemergence, plant response rating; conditions: Triticum aestivum, post-emergence
Outline: as §1

[8] = system: blackgrass (Alopecurus myosuroides); assay: Test C preemergence, plant response rating; conditions: Alopecurus myosuroides, pre-emergence, Preemergence
Outline: as §1

[9] = system: soybean (Glycine max); assay: Test C preemergence, plant response rating; conditions: Glycine max, pre-emergence, Preemergence
Outline: as §1

[10] = system: velvetleaf (Abutilon theophrasti); assay: Test C preemergence, plant response rating; conditions: Abutilon theophrasti, pre-emergence, Preemergence
Outline: as §1

[11] = system: ryegrass, Italian (Italian ryegrass, Lolium multiflorum); assay: Test C preemergence, plant response rating; conditions: Lolium multiflorum, pre-emergence, Preemergence
Outline: as §1

[12] = system: morningglory (Ipomoea coccinea); assay: Test C preemergence, plant response rating; conditions: Ipomoea, pre-emergence, Preemergence
Outline: as §1

[13] = system: oilseed rape (Brassica napus); assay: Test C preemergence, plant response rating; conditions: Brassica napus, pre-emergence, Preemergence
Outline: as §1

[14] = system: ragweed (common ragweed, Ambrosia elatior); assay: Test C preemergence, plant response rating; conditions: Ambrosia artemisiifolia, pre-emergence, Preemergence
Outline: as §1

[15] = system: corn (Zea mays); assay: Test C preemergence, plant response rating; conditions: Zea mays, pre-emergence, Preemergence
Outline: as §1

[16] = system: foxtail, giant (giant foxtail, Setaria faberii); assay: Test C preemergence, plant response rating; conditions: Setaria faberi, pre-emergence, Preemergence
Outline: as §1

[17] = system: lambsquarters (Chenopodium album); assay: Test C preemergence, plant response rating; conditions: Chenopodium album, pre-emergence, Preemergence
Outline: as §1

[18] = system: crabgrass, large (large crabgrass, Digitaria sanguinalis); assay: Test C preemergence, plant response rating; conditions: Digitaria sanguinalis, pre-emergence, Preemergence
Outline: as §1

[19] = system: waterhemp (common waterhemp, Amaranthus rudis); assay: Test C preemergence, plant response rating; conditions: Amaranthus tuberculatus, pre-emergence, Preemergence
Outline: as §1

[20] = system: nutsedge, yellow (yellow nutsedge, Cyperus esculentus); assay: Test C preemergence, plant response rating; conditions: Cyperus, pre-emergence, Preemergence
Outline: as §1

[21] = system: wheat (winter wheat, Triticum aestivum); assay: Test C preemergence, plant response rating; conditions: Triticum aestivum, pre-emergence, Preemergence
Outline: as §1

[22] = 62 g ai/ha, scale 0 to 100 (0 no effect, 100 complete control)
[23] = 125 g ai/ha, scale 0 to 100 (0 no effect, 100 complete control)

Compound: CC(CC(F)(F)F)OC(=O)c1c(Br)cccc1Oc1ncc(Cl)cn1 (stereo not drawn) [Compound 16, 3,3,3-trifluoro-1-methylpropyl 2-bromo-6-[(5-chloro-2-pyrimidinyl)oxy]benzoate]
- pest or weed control at 16 g/ha ([1]; 16 g ai/ha, scale 0 to 100): 0%
- pest or weed control at 31 g/ha ([1]; 31 g ai/ha, scale 0 to 100): 0%
- pest or weed control at 62 g/ha [1, 22]: 0%
- pest or weed control at 125 g/ha [1, 23]: 5%
- pest or weed control at 16 g/ha ([2]; 16 g ai/ha, scale 0 to 100): 5%
- pest or weed control at 31 g/ha ([2]; 31 g ai/ha, scale 0 to 100): 10%
- pest or weed control at 62 g/ha [2, 22]: 20%
- pest or weed control at 125 g/ha [2, 23]: 20%
- pest or weed control at 16 g/ha ([3]; 16 g ai/ha, scale 0 to 100): 20%
- pest or weed control at 31 g/ha ([3]; 31 g ai/ha, scale 0 to 100): 25%
- pest or weed control at 62 g/ha ([3]; 62 g ai/ha, scale 0 to 100 (0 no effect, 100 complete control), read-out: Velvetleaf plant response rating): 30%
- pest or weed control at 125 g/ha [3, 23]: 50%
- pest or weed control at 16 g/ha ([4]; 16 g ai/ha, scale 0 to 100): 5%
- pest or weed control at 31 g/ha ([4]; 31 g ai/ha, scale 0 to 100): 30%
- pest or weed control at 62 g/ha [4, 22]: 40%
- pest or weed control at 125 g/ha [4, 23]: 75%
- plant injury at 16 g/ha ([5]; 16 g ai/ha, scale 0 to 100): 15%
- plant injury at 31 g/ha ([5]; 31 g ai/ha, scale 0 to 100): 35%
- plant injury at 62 g/ha [5, 22]: 60%
- plant injury at 125 g/ha [5, 23]: 70%
- pest or weed control at 16 g/ha ([6]; 16 g ai/ha, scale 0 to 100): 10%
- pest or weed control at 31 g/ha ([6]; 31 g ai/ha, scale 0 to 100): 20%
- pest or weed control at 62 g/ha [6, 22]: 30%
- pest or weed control at 125 g/ha [6, 23]: 35%
- plant injury at 16 g/ha ([7]; 16 g ai/ha, scale 0 to 100): 0%
- plant injury at 31 g/ha ([7]; 31 g ai/ha, scale 0 to 100): 0%
- plant injury at 62 g/ha ([7]; 62 g ai/ha, scale 0 to 100 (0 no effect, 100 complete control), read-out: Wheat plant response rating): 0%
- plant injury at 125 g/ha [7, 23]: 0%
- pest or weed control at 62 g/ha ([8]; 62 g ai/ha, scale of 0 to 100): 5%
- pest or weed control at 125 g/ha ([8]; 125 g ai/ha, scale of 0 to 100): 10%
- pest or weed control at 16 g/ha ([8]; 16 g ai/ha, scale 0 to 100): 0%
- pest or weed control at 31 g/ha ([8]; 31 g ai/ha, scale 0 to 100): 0%
- plant injury at 125 g/ha ([9]; 125 g ai/ha, scale of 0 to 100): 5%
- plant injury at 16 g/ha ([9]; 16 g ai/ha, scale 0 to 100): 0%
- plant injury at 31 g/ha ([9]; 31 g ai/ha, scale 0 to 100): 0%
- plant injury at 62 g/ha ([9]; 62 g ai/ha, scale 0 to 100): 0%
- pest or weed control at 125 g/ha ([10]; 125 g ai/ha, scale of 0 to 100): 75%
- pest or weed control at 16 g/ha ([10]; 16 g ai/ha, scale 0 to 100): 0%
- pest or weed control at 31 g/ha ([10]; 31 g ai/ha, scale 0 to 100): 5%
- pest or weed control at 62 g/ha ([10]; 62 g ai/ha, scale 0 to 100): 50%
- pest or weed control at 125 g/ha ([11]; 125 g ai/ha, scale of 0 to 100): 5%
- pest or weed control at 16 g/ha ([11]; 16 g ai/ha, scale 0 to 100): 0%
- pest or weed control at 31 g/ha ([11]; 31 g ai/ha, scale 0 to 100): 0%
- pest or weed control at 62 g/ha ([11]; 62 g ai/ha, scale 0 to 100): 5%
- pest or weed control at 125 g/ha ([12]; 125 g ai/ha, scale of 0 to 100): 25%
- pest or weed control at 16 g/ha ([12]; 16 g ai/ha, scale 0 to 100): 10%
- pest or weed control at 31 g/ha ([12]; 31 g ai/ha, scale 0 to 100): 0%
- pest or weed control at 62 g/ha ([12]; 62 g ai/ha, scale 0 to 100): 25%
- plant injury at 125 g/ha ([13]; 125 g ai/ha, scale of 0 to 100): 100%
- plant injury at 16 g/ha ([13]; 16 g ai/ha, scale 0 to 100): 0%
- plant injury at 31 g/ha ([13]; 31 g ai/ha, scale 0 to 100): 50%
- plant injury at 62 g/ha ([13]; 62 g ai/ha, scale 0 to 100): 60%
- pest or weed control at 125 g/ha ([14]; 125 g ai/ha, scale of 0 to 100): 0%
- pest or weed control at 16 g/ha ([14]; 16 g ai/ha, scale 0 to 100): 0%
- pest or weed control at 31 g/ha ([14]; 31 g ai/ha, scale 0 to 100): 0%
- pest or weed control at 62 g/ha ([14]; 62 g ai/ha, scale 0 to 100): 5%
- Corn plant response rating (crop injury, 0 = no effect, 100 = complete kill) at 62 g/ha ([15]; 62 g ai/ha, scale of 0 to 100): 0%
- Corn plant response rating (crop injury, 0 = no effect, 100 = complete kill) at 125 g/ha ([15]; 125 g ai/ha, scale of 0 to 100): 10%
- Corn plant response rating (crop injury, 0 = no effect, 100 = complete kill) at 16 g/ha ([15]; 16 g ai/ha, scale 0 to 100): 0%
- Corn plant response rating (crop injury, 0 = no effect, 100 = complete kill) at 31 g/ha ([15]; 31 g ai/ha, scale 0 to 100): 0%
- pest or weed control at 62 g/ha ([16]; 62 g ai/ha, scale of 0 to 100): 90%
- pest or weed control at 125 g/ha ([16]; 125 g ai/ha, scale of 0 to 100): 100%
- pest or weed control at 16 g/ha ([16]; 16 g ai/ha, scale 0 to 100): 5%
- pest or weed control at 31 g/ha ([16]; 31 g ai/ha, scale 0 to 100): 25%
- pest or weed control at 125 g/ha ([17]; 125 g ai/ha, scale of 0 to 100): 50%
- pest or weed control at 16 g/ha ([17]; 16 g ai/ha, scale 0 to 100): 0%
- pest or weed control at 31 g/ha ([17]; 31 g ai/ha, scale 0 to 100): 20%
- pest or weed control at 62 g/ha ([17]; 62 g ai/ha, scale 0 to 100): 20%
- pest or weed control at 62 g/ha ([18]; 62 g ai/ha, scale of 0 to 100): 90%
- pest or weed control at 125 g/ha ([18]; 125 g ai/ha, scale of 0 to 100): 100%
- pest or weed control at 16 g/ha ([18]; 16 g ai/ha, scale 0 to 100): 5%
- pest or weed control at 31 g/ha ([18]; 31 g ai/ha, scale 0 to 100): 75%
- pest or weed control at 125 g/ha ([19]; 125 g ai/ha, scale of 0 to 100): 100%
- pest or weed control at 16 g/ha ([19]; 16 g ai/ha, scale 0 to 100): 10%
- pest or weed control at 31 g/ha ([19]; 31 g ai/ha, scale 0 to 100): 60%
- pest or weed control at 62 g/ha ([19]; 62 g ai/ha, scale 0 to 100): 85%
- pest or weed control at 125 g/ha ([20]; 125 g ai/ha, scale of 0 to 100): 0%
- pest or weed control at 16 g/ha ([20]; 16 g ai/ha, scale 0 to 100): 0%
- pest or weed control at 31 g/ha ([20]; 31 g ai/ha, scale 0 to 100): 0%
- pest or weed control at 62 g/ha ([20]; 62 g ai/ha, scale 0 to 100): 0%
- plant injury at 125 g/ha ([21]; 125 g ai/ha, scale of 0 to 100): 0%
- plant injury at 16 g/ha ([21]; 16 g ai/ha, scale 0 to 100): 0%
- plant injury at 31 g/ha ([21]; 31 g ai/ha, scale 0 to 100): 0%
- plant injury at 62 g/ha ([21]; 62 g ai/ha, scale 0 to 100): 0%

Source: patent US11053204B2, “Pyrimidinyloxy benzene derivatives as herbicides” (FMC Corporation, priority 2015, dated 2021)
